Data reported in patent US20140194373A1, “COSMETIC USE OF […] A DERIVATIVE THEREOF IN THE PREVENTION AND/OR TREATMENT OF BODY ODOUR” (NESTEC S.A., priority 2011, published 2014).

System: dermicidin
Assay: Differential proteomic analysis (iTRAQ) of stratum corneum varnish strips after oral supplementation, randomized double-blind study
Type: in vivo, women
Settings: 500 mg of hesperidin per day, samples at D1 and D168, left leg, compared with placebo maltodextrin, n=33 per group
Protocol: The test product consists of hesperidin and is administered orally.
The active agent was tested alone in a randomized double-blind study.
66 women were divided into two groups, one of these groups testing maltodextrin (n=33 group A), the other testing hesperidin (n=33 group B).
The supplementation was 500 mg of hesperidin per day.
The evolution of various cutaneous markers was studied by proteomics on samples of isolated stratum corneum as indicated hereinbelow.
A sample is taken at times D1 and D168 with varnish strips in order to remove only part of the stratum corneum, i.e. at most the first 4 to 5 layers of stratum corneum.
To do this, a 41 μm Nylon filter gauze of Millipore NY41 type is applied to a predefined area of the left leg. […]
These skin samples (varnish strips of stratum corneum) were then analysed by proteomics by means of an “isobaric marking” technique to evaluate the expression of the protein(s) under study. […]
The marked peptides are detected by mass spectrometry with the intrinsic mass of the peptide +145 Da, originating from the reagent. In the peptide fragmentation step, the contribution of each of the reagents is assessed by the release of ions (fragments) having different specific masses. […]

SMILES: COc1ccc([C@@H]2CC(=O)c3c(O)cc(O[C@@H]4O[C@H](CO[C@@H]5O[C@@H](C)[C@H](O)[C@@H](O)[C@H]5O)[C@@H](O)[C@H](O)[C@H]4O)cc3O2)cc1O [hesperidin, (S)-7-[[6-0-(6-deoxy-α-L-mannopyranosyl)-β-D-glucopyranosyl]oxy]-2,3-dihydro-5-hydroxy-2-(3-hydroxy-4-methoxyphenyl)-4H-1-benzopyran-4-one]
- expression of dermicidin in stratum corneum: significantly stimulates the expression of dermicidin
